Experimental data taken from publication PMC11365428 (The Journal of Biological Chemistry, 2024).
Converted amounts (≈) assume the structure as drawn. Like-named read-outs stand apart in the source and are kept apart here. Non-standard residues stand in square brackets, D forms with d. Residues, ends and D or L forms follow the SMILES beside them. No end group written: not given here. pGlu = O=C1CC[C@@H](C(=O)O)N1

T1: apTKRPR-A (Aplysia californica, UniProt A0AAU7SSZ1)
T1 sequence (A0AAU7SSZ1 1-398): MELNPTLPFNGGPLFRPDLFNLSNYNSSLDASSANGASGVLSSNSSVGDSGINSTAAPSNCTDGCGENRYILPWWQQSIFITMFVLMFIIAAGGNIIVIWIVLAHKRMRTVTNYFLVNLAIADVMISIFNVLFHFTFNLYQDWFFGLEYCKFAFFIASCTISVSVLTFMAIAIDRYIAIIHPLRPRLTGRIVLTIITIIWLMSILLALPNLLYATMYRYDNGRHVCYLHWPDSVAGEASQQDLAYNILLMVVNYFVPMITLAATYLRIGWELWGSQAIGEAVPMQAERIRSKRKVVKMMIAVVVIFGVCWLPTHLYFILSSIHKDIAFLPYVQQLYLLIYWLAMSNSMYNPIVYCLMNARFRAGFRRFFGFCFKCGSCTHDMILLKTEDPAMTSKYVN

T2: apTKRPR-B (Aplysia californica, UniProt A0AAU7STS1)
T2 sequence (A0AAU7STS1 1-447): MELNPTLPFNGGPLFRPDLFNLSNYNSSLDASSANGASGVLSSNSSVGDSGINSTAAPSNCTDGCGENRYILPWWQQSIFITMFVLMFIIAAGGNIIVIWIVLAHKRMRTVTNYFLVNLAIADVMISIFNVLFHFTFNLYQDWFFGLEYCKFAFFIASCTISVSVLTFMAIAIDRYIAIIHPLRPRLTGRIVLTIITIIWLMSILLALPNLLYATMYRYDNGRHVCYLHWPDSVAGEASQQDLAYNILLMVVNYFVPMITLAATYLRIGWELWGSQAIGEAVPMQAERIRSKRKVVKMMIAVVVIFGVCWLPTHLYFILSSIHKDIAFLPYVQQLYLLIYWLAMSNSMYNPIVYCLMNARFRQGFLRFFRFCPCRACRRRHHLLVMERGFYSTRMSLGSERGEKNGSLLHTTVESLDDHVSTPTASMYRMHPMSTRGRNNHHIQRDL

B1: apTKRP-2b analog with Asp instead of Gly at position eight (peptide)
peptide: [pGlu]PHLGFHDSR-NH2
SMILES: CC(C)C[C@H](NC(=O)[C@H](Cc1c[nH]cn1)NC(=O)[C@@H]1CCCN1C(=O)[C@@H]1CCC(=O)N1)C(=O)NCC(=O)N[C@@H](Cc1ccccc1)C(=O)N[C@@H](Cc1c[nH]cn1)C(=O)N[C@@H](CC(=O)O)C(=O)N[C@@H](CO)C(=O)N[C@@H](CCCNC(=N)N)C(N)=O
B2: apTKRP-2b analog with Lys instead of Gly at position eight (peptide)
peptide: [pGlu]PHLGFHKSR-NH2
SMILES: CC(C)C[C@H](NC(=O)[C@H](Cc1c[nH]cn1)NC(=O)[C@@H]1CCCN1C(=O)[C@@H]1CCC(=O)N1)C(=O)NCC(=O)N[C@@H](Cc1ccccc1)C(=O)N[C@@H](Cc1c[nH]cn1)C(=O)N[C@@H](CCCCN)C(=O)N[C@@H](CO)C(=O)N[C@@H](CCCNC(=N)N)C(N)=O
B3: apTKRP-2b analog with Leu instead of Gly at position eight (peptide)
peptide: [pGlu]PHLGFHLSR-NH2
SMILES: CC(C)C[C@H](NC(=O)[C@H](Cc1c[nH]cn1)NC(=O)[C@@H]1CCCN1C(=O)[C@@H]1CCC(=O)N1)C(=O)NCC(=O)N[C@@H](Cc1ccccc1)C(=O)N[C@@H](Cc1c[nH]cn1)C(=O)N[C@@H](CC(C)C)C(=O)N[C@@H](CO)C(=O)N[C@@H](CCCNC(=N)N)C(N)=O

Experiments:
apTKRPR-A = molecular target: T1, apTKRPR-A; assay: IP1 accumulation assay, CHO-K1 cells transiently expressing apTKRPR-A; format: cell-based
Procedure: (§1) To express putative Aplysia receptors transiently in CHO-K1 cells, the cDNAs were subcloned into the pcDNA3.1(+) or pcDNA3.1(+)-FLAG (for ELISA experiments only, see “Cell surface expression analysis by ELISA” section) expression vector. On the day before transfection, the CHO-K1 cells were passaged into 60 mm diameter tissue culture–treated dishes, and the transfection experiments were performed when the cells were grown to 70 to 90% confluence. CHO-K1 cells were transfected with the cDNA plasmid constructs using Turbofect Transfection reagent (Thermo Fisher Scientific, R0531), following the manufacturer’s instructions. […] The DNA/TurboFect mixture dropwise was then added to the dish, and the cells were incubated at 37 °C in a humidified incubator containing 5% CO2 overnight.
(§2) On the third day, the activation of the putative receptors was detected by monitoring intracellular IP1 concentration using an IP-One Gq kit (Cisbio, 62IPAPEB) in Tecan Spark. Except for using 0.5x reagent, all other procedures were performed following the manufacturer’s instructions. IP1 accumulation assay measures the accumulation of IP1, which is hydrolyzed from the second messenger, and inositol triphosphate. Inositol triphosphate is generated by the Gαq pathway when a GPCR is activated by an appropriate ligand.

apTKRPR-B = molecular target: T2, apTKRPR-B; assay: IP1 accumulation assay, CHO-K1 cells transiently expressing apTKRPR-B; format: cell-based
Procedure: as §1, §2

[1] = trifluoroacetate counter ion, ref ChinaPeptides Co., Ltd. certificate of analysis (Fig. S21), cited from earlier work
[2] = molecular target: Aplysia tachykinin-related peptide receptor A (apTKRPR-A) (Aplysia californica)
[3] = molecular target: Aplysia tachykinin-related peptide receptor B (apTKRPR-B) (Aplysia californica)
[4] = log10 of EC50 in M, negative, IP1 accumulation, CHO-K1, mean ± SD of at least three independent experiments (apTKRP-1 n = 9; apTKRP-2a n = 11; apTKRP-2b n = 19; analogs, apTKRP-2b-OH n = 4), read-out: apTKRPR-A log[EC50] (converted)
[5] = log10 of EC50 in M, negative, IP1 accumulation, CHO-K1, mean ± SD of at least three independent experiments (apTKRP-1 n = 9; apTKRP-2a n = 11; apTKRP-2b n = 19; analogs, apTKRP-2b-OH n = 4), read-out: apTKRPR-B log[EC50] (converted)

| Molecule | EC50 (apTKRPR-A) | EC50 (apTKRPR-B) | Solubility ([1]; in 15%ACN/85%H2O) | further results |
| --- | --- | --- | --- | --- |
| CC(C)C[C@H](NC(=O)[C@H](Cc1c[nH]cn1)NC(=O)[C@@H]1CCCN1C(=O)[C@@H]1CCC(=O)N1)C(=O)N[C@@H](C)C(=O)N[C@@H](Cc1ccccc1)C(=O)N[C@@H](Cc1c[nH]cn1)C(=O)NCC(=O)N[C@@H](CO)C(=O)N[C@@H](CCCNC(=N)N)C(N)=O [[Ala^5]apTKRP-2b] ([pGlu]PHLAFHGSR-NH2) | 1660 nM | 537 nM | 1000 µg/mL (≈ 884 µM) |  |
| CC(C)C[C@H](NC(=O)[C@H](Cc1c[nH]cn1)NC(=O)[C@@H]1CCCN1C(=O)[C@@H]1CCC(=O)N1)C(=O)NCC(=O)N[C@@H](Cc1ccccc1)C(=O)N[C@@H](Cc1c[nH]cn1)C(=O)N[C@@H](C)C(=O)N[C@@H](CO)C(=O)N[C@@H](CCCNC(=N)N)C(N)=O [[Ala^8]apTKRP-2b] ([pGlu]PHLGFHASR-NH2) | 20.9 nM | 3.09 nM | 1000 µg/mL (≈ 884 µM) |  |
| CC(C)C[C@H](NC(=O)[C@H](Cc1c[nH]cn1)NC(=O)[C@H](C)NC(=O)[C@@H]1CCC(=O)N1)C(=O)NCC(=O)N[C@@H](Cc1ccccc1)C(=O)N[C@@H](Cc1c[nH]cn1)C(=O)NCC(=O)N[C@@H](CO)C(=O)N[C@@H](CCCNC(=N)N)C(N)=O [[Ala^2]apTKRP-2b] ([pGlu]AHLGFHGSR-NH2) | 309 nM | 33.1 nM | 1000 µg/mL (≈ 916 µM) |  |
| CC(C)C[C@H](NC(=O)[C@H](C)NC(=O)[C@@H]1CCCN1C(=O)[C@@H]1CCC(=O)N1)C(=O)NCC(=O)N[C@@H](Cc1ccccc1)C(=O)N[C@@H](Cc1c[nH]cn1)C(=O)NCC(=O)N[C@@H](CO)C(=O)N[C@@H](CCCNC(=N)N)C(N)=O [[Ala^3]apTKRP-2b] ([pGlu]PALGFHGSR-NH2) | 295 nM | 32.4 nM | 1000 µg/mL (≈ 951 µM) |  |
| CC(C)C[C@H](NC(=O)[C@H](Cc1c[nH]cn1)NC(=O)[C@@H]1CCCN1C(=O)[C@@H]1CCC(=O)N1)C(=O)NCC(=O)N[C@@H](C)C(=O)N[C@@H](Cc1c[nH]cn1)C(=O)NCC(=O)N[C@@H](CO)C(=O)N[C@@H](CCCNC(=N)N)C(N)=O [[Ala^6]apTKRP-2b] ([pGlu]PHLGAHGSR-NH2) | 1510 nM | 537 nM |  | Solubility ([1]; in 13%ACN/87%H2O): 1000 µg/mL (≈ 960 µM) |
| CC(C)C[C@H](NC(=O)[C@H](Cc1c[nH]cn1)NC(=O)[C@@H]1CCCN1C(=O)[C@@H]1CCC(=O)N1)C(=O)NCC(=O)N[C@@H](Cc1ccccc1)C(=O)N[C@@H](Cc1c[nH]cn1)C(=O)NCC(=O)N[C@@H](CO)C(=O)N[C@@H](C)C(N)=O [[Ala^10]apTKRP-2b] ([pGlu]PHLGFHGSA-NH2) | > 10000 nM | > 10000 nM | 1000 µg/mL (≈ 969 µM) |  |
| CC(C)C[C@H](NC(=O)[C@H](Cc1c[nH]cn1)NC(=O)[C@@H]1CCCN1C(=O)[C@@H]1CCC(=O)N1)C(=O)NCC(=O)N[C@@H](Cc1ccccc1)C(=O)N[C@@H](Cc1c[nH]cn1)C(=O)NCC(=O)N[C@@H](C)C(=O)N[C@@H](CCCNC(=N)N)C(N)=O [[Ala^9]apTKRP-2b] ([pGlu]PHLGFHGAR-NH2) | 195 nM | 17.4 nM | 1000 µg/mL (≈ 908 µM) |  |
| FKPSGFMGSR-NH2 [apTKRP-1] |  |  |  | EC50 (apTKRPR-A; [4]): 145 nM; EC50 (apTKRPR-B; [5]): 24.5 nM |
| CC(C)C[C@H](NC(=O)[C@H](Cc1c[nH]cn1)NC(=O)[C@@H]1CCCN1C(=O)[C@@H]1CCC(=O)N1)C(=O)NCC(=O)N[C@@H](Cc1ccccc1)C(=O)N[C@@H](Cc1c[nH]cn1)C(=O)NCC(=O)N[C@@H](CO)C(=O)N[C@@H](CCCNC(=N)N)C(=O)O [apTKRP-2b-OH] ([pGlu]PHLGFHGSR-OH) |  |  |  | EC50 (apTKRPR-A; IP1 accumulation, CHO-K1, from average log[EC50], read-out: apTKRPR-A [EC50]): > 10000 nM; EC50 (apTKRPR-A; [4]): > 10000 nM; EC50 (apTKRPR-B; IP1 accumulation, CHO-K1, from average log[EC50], read-out: apTKRPR-B [EC50]): > 10000 nM; EC50 (apTKRPR-B; [5]): > 10000 nM |
| CC(C)C[C@H](NC(=O)[C@H](Cc1c[nH]cn1)NC(=O)[C@@H]1CCCN1C(=O)[C@@H]1CCC(=O)N1)C(=O)NCC(=O)N[C@@H](Cc1ccccc1)C(=O)N[C@@H](C)C(=O)NCC(=O)N[C@@H](CO)C(=O)N[C@@H](CCCNC(=N)N)C(N)=O [[Ala^7]apTKRP-2b] ([pGlu]PHLGFAGSR-NH2) | 1070 nM |  | 1000 µg/mL (≈ 951 µM) |  |
| C[C@H](NC(=O)[C@H](Cc1c[nH]cn1)NC(=O)[C@@H]1CCCN1C(=O)[C@@H]1CCC(=O)N1)C(=O)NCC(=O)N[C@@H](Cc1ccccc1)C(=O)N[C@@H](Cc1c[nH]cn1)C(=O)NCC(=O)N[C@@H](CO)C(=O)N[C@@H](CCCNC(=N)N)C(N)=O [[Ala^4]apTKRP-2b] ([pGlu]PHAGFHGSR-NH2) | 9.77 nM | 1.7 nM |  | Solubility ([1]; in 13%ACN/87%H2O): 1000 µg/mL (≈ 930 µM) |
| B1 |  |  |  | EC50 of IP1 accumulation in CHO-K1 cells expressing the receptor [2]: > 10000 nM; EC50 of IP1 accumulation in CHO-K1 cells expressing the receptor [3]: > 10000 nM |
| B2 |  |  |  | EC50 of IP1 accumulation in CHO-K1 cells expressing the receptor [2]: > 10000 nM; EC50 of IP1 accumulation in CHO-K1 cells expressing the receptor [3]: > 10000 nM |
| B3 |  |  |  | EC50 of IP1 accumulation in CHO-K1 cells expressing the receptor [2]: > 10000 nM; EC50 of IP1 accumulation in CHO-K1 cells expressing the receptor [3]: > 10000 nM |
